Reference: patent EP0906100B1, “USE OF 5-HT 1A? RECEPTOR ANTAGONISTS FOR THE TREATMENT OF URINARY INCONTINENCE” (RECORDATI S.A., priority 1996, dated 1997)
pKi: −log10 of the molar value. Like-named read-outs stand apart in the source and are kept apart here.

Experiments:
5-HT1A receptor = target: T1, 5-HT1A receptor (Rattus norvegicus, UniProt P19327); experiment: [3H]8-OH-DPAT binding (5HT1A receptors), rat hippocampi; details: 1 nM [3H]8-OH-DPAT, read-out: Binding affinity for the 5-HT1A receptor, Ki
T1 construct: Rat hippocampi were homogenized in 50 volumes of ice-cold 50 mM Tris-HCl pH 7.4; from tissue; host or cells: rat hippocampus membranes
T1 sequence (P19327 1-422): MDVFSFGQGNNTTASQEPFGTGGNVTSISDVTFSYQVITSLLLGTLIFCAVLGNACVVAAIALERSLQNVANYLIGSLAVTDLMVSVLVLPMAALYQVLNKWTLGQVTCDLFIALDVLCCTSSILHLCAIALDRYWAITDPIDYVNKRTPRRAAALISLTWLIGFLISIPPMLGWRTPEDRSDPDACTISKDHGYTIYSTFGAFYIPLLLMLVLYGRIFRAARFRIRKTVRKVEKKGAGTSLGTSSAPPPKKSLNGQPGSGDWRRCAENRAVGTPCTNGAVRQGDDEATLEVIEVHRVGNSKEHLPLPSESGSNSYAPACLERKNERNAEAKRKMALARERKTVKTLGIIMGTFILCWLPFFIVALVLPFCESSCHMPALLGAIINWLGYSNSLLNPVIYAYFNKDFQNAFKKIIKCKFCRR
Experimental: [^3H]8-OH-DPAT binding (5HT1A receptors):
Rat hippocampi were homogenized in 50 volumes of ice-cold 50 mM Tris-HCl pH 7.4. The homogenates were centrifuged at 48,000 x g for 10 minutes, and the pellets were resuspended in the same volume of ice-cold buffer, incubated for 10 minutes at 37°C, centrifuged and resuspended two more times. The final pellets obtained were resuspended in 100 volumes of 50 mM Tris-HCl, pH 7.4, containing 0.1 % ascorbic acid and 10 µM pargyline. 1 ml samples were incubated for 30 min at 25°C with 1 nM [^3H]8-OH-DPAT, in absence or presence of different concentrations (10^-5 to 10^-10 M) of the test compound. Non-specific binding was determined in the presence of 10 µM 5-HT. The incubations were terminated by rapid filtration through Whatman GF/B filters using a Brandel cell harvester, after which the filters were washed with 3 x 3 ml of ice-cold buffer. The radioactivity retained on the filters was determined by liquid scintillation counting.

[1] = test system: pre-synaptic 5-HT1A receptor; experiment: Antagonism of hypothermia induced by 8-OH-DPAT in mice; assay type: in vivo; details: s.c., hypothermia induced by 0.5 mg/kg s.c. 8-OH-DPAT
Experimental: Antagonism of hypothermia induced by 8-OH-DPAT in mice:
The antagonistic effect of 5-HT1A receptor antagonists on hypothermia induced by 8-OH-DPAT was evaluated by the method of Moser (Moser, Eur. J. Pharmacol., 193, 165, 1991) with minor modifications.
Male CD-1 mice (28-38 g) obtained from Charles River (Italy) were housed in a climate-controlled room (temperature 22 ± 2°C; humidity 55 ± 15%) and maintained on a 12 h light/dark cycle with free access to food and water. On the day of experiment, mice were placed singly in clear plastic boxes under the same ambient conditions. Body temperature was measured by the insertion of a temperature probe (Termist TM-S, LSI) into the rectum to a depth of 2 cm. Rectal temperature was measured immediately prior to subcutaneous injection of the test compound and 30 min later. All animals then received 8-OH-DPAT (0.5 mg/kg s.c.) and their temperature was measured 30 min later. For each animal, temperature changes were calculated with respect to pretreatment values and the mean values were calculated for each treatment group.

[2] = test system: cystometric parameters (bladder volume capacity, micturition pressure); experiment: Cystometric parameters (BVC, MP) in the conscious rat; assay type: in vivo, rats; details: for BVC before treatment / MP before treatment: baseline; for BVC before treatment / MP before treatment / BVC after treatment / MP after treatment: mean±S.E.; for ED50: Rattus norvegicus, read-out: approximate ED50 value, reduction of MP
Experimental: Male Sprague Dawley rats (Crl: CD° BR) weighing 250-350 g were used. The animals were housed with free access to food and water and maintained on a forced 12 h alternating light-dark cycle at 22-24°C for at least one week, except during performance of the experiment.
An approximately 10 mm long midline incision was made in the shaved and cleaned abdominal wall. The urinary bladder was gently freed from adhering tissues, emptied, and then cannulated, via an incision at the dome, with a polyethylene cannula (Portex PP30), which was permanently sutured with silk thread. The cannula was exteriorized through a subcutaneous tunnel in the retroscapular area, where it was connected with a plastic adapter to avoid the risk of removal by the animal. For intravenous (i.v.) injection of test compounds, a PE 50 polyethylene tubing filled with physiological saline was inserted into the jugular vein and exteriorized in the retroscapular area.
Since cystometrographic parameters have been reported to be influenced by the time elapsed after catheter implantation […].
On the day of the experiment, the rats were placed in Bollman's cages; after a stabilization period of 20 min, the free tip of the bladder catheter was connected through a T-shaped tube to a pressure transducer (Bentley T 800/Marb P 82) and to a peristaltic pump (Gilson minipuls 2) for a continuous infusion, at the constant rate of 0.1 ml/min, of saline solution into the urinary bladder. The intraluminal pressure signal during infusion was continuously recorded on a polygraph (Battaglia Rangoni KO 380 with ADC1/T amplifier). Two urodynamic parameters were evaluated: bladder volume capacity (BVC) and micturition pressure (MP). BVC (in ml) is defined as the minimum volume infused after which detrusor contraction (followed by micturition) occurs. MP (in mmHg) is defined as the maximal intravesical pressure induced by the contraction of detrusor during micturition. Basal BVC and MP values were calculated as the means of the first two recorded cystometrograms. At this point, the infusion was interrupted and the test compounds were administered. Fifteen minutes after intravenous administration, or one hour after oral drug administration, two additional cystometrograms were recorded in each animal and the mean values of the two cystometrographic parameters were calculated.
The statistical significance of the differences in urodynamic parameter values was evaluated by Student's t test for paired data. Only changes showing a probability P<0.01 were considered to be significant.

[3] = 100 µg/kg i.v., 15 min after injection
[4] = 300 µg/kg i.v., 15 min after injection
[5] = 1000 µg/kg i.v., 15 min after injection
[6] = 1 mg/kg p.o., 1 hour after oral administration
[7] = 3 mg/kg p.o., 1 hour after oral administration
[8] = 10 mg/kg p.o., 1 hour after oral administration
[9] = conscious rats, i.v., NAN-190 up to the highest administrable dose of 300 µg/kg
[10] = 2000 µg/kg i.v., 15 min after injection

O=C(C1CCCCC1)N(CCN1CCN(c2cccc3[nH]ccc23)CC1)c1ccccn1 [Compound B, N-{2-[4-(4-Indolyl)-1-piperazinyl]-ethyl}-N-(2-pyridyl)-cyclohexanecarboxamide] was tested, and the pKi (5-HT1A receptor) was 9.89 and the “ID50 (95%) C.L., antagonistic activity for the pre-synaptic 5-HT1A receptor” value [1] was 1.9 (1.0-3.7) µg/kg s.c.

In the case of CCN(CC)CC#CCOC(=O)C(O)(c1ccccc1)C1CCCCC1 (centres unmarked) [Oxybutynin, oxybutynin], the BVC before treatment ([2]; 100 µg/kg i.v. group) was 0.82 ± 0.15 mL, the MP before treatment ([2]; 100 µg/kg i.v. group) was 95.2±9.2 mmHg and the BVC % change [2, 3] was “+9%”. It also gave an MP % change [2, 3] of -19%, a BVC after treatment [2, 3] of 0.89 ± 0.18 mL and an MP after treatment [2, 3] of 77.4±10.3 mmHg. For the same compound, the BVC before treatment ([2]; 300 µg/kg i.v. group) was 0.83 ± 0.13 mL, the MP before treatment ([2]; 300 µg/kg i.v. group) was 82.3±8.7 mmHg and the BVC % change [2, 4] was 0%. It also gave an MP % change [2, 4] of -39%, a BVC after treatment [2, 4] of 0.83 ± 0.12 mL and an MP after treatment [2, 4] of 50.5±6.3 mmHg. For the same compound, the BVC before treatment ([2]; 1000 µg/kg i.v. group) was 0.94 ± 0.19 mL, the MP before treatment ([2]; 1000 µg/kg i.v. group) was 110.9±10.2 mmHg and the BVC % change [2, 5] was “+7%”. The MP % change [2, 5] was -73%, the BVC after treatment [2, 5] was 1.00 ± 0.18 mL and the MP after treatment [2, 5] was 29.6±5.6 mmHg. For the same compound, the BVC before treatment ([2]; 1 mg/kg p.o. group) was 0.56 ± 0.11 mL, the MP before treatment ([2]; 1 mg/kg p.o. group) was 92.1±13.3 mmHg and the BVC % change [2, 6] was “+31%”. It also gave an MP % change [2, 6] of -16%, a BVC after treatment [2, 6] of 0.74 ± 0.11 mL and an MP after treatment [2, 6] of 77.3±9.8 mmHg. For the same compound, the BVC before treatment ([2]; 3 mg/kg p.o. group) was 0.54 ± 0.07 mL, the MP before treatment ([2]; 3 mg/kg p.o. group) was 82.1±5.1 mmHg and the BVC % change [2, 7] was “+18%”. It also gave an MP % change [2, 7] of -49%, a BVC after treatment [2, 7] of 0.63 ± 0.13 mL and an MP after treatment [2, 7] of 42.1±5.1 mmHg. The BVC before treatment ([2]; 10 mg/kg p.o. group) was 0.55 ± 0.08 mL, the MP before treatment ([2]; 10 mg/kg p.o. group) was 98.3±9.0 mmHg and the BVC % change [2, 8] was “+27%”. It also gave an MP % change [2, 8] of -68%, a BVC after treatment [2, 8] of 0.70 ± 0.11 mL and an MP after treatment [2, 8] of 31.8±3.9 mmHg. For the same compound, the ED50 ([2]; iv, conscious rats, i.v.) was roughly 0.4 mg/kg, the ED50 ([2]; conscious rats, oral administration) was roughly 4 mg/kg and the “effect on BVC (in words)” value [2, 9] was “inactive”.

With COc1ccccc1N1CCN(CCN(C(=O)C2CCCCC2)c2ccccn2)CC1 [Compound A, N-{2-[4-(2-methoxyphenyl)-1-piperazinyl]-ethyl}-N-(2-pyridyl)-cyclohexanecarboxamide] the BVC before treatment ([2]; 100 µg/kg i.v. group) was 0.65 ± 0.06 mL, the MP before treatment ([2]; 100 µg/kg i.v. group) was 93.0±8.3 mmHg and the BVC % change [2, 3] was “+4%”. The MP % change [2, 3] was -10%, the BVC after treatment [2, 3] was 0.66 ± 0.08 mL and the MP after treatment [2, 3] was 83.8±8.7 mmHg. For the same compound, the BVC before treatment ([2]; 300 µg/kg i.v. group) was 0.47 ± 0.05 mL, the MP before treatment ([2]; 300 µg/kg i.v. group) was 78.7±5.8 mmHg and the BVC % change [2, 4] was “+32%”. For the same compound, the MP % change [2, 4] was -11%, the BVC after treatment [2, 4] was 0.63 ± 0.06 mL and the MP after treatment [2, 4] was 70.0±4.1 mmHg. For the same compound, the BVC before treatment ([2]; 1000 µg/kg i.v. group) was 0.64 ± 0.05 mL, the MP before treatment ([2]; 1000 µg/kg i.v. group) was 104.6±6.4 mmHg and the BVC % change [2, 5] was “+29%”. The MP % change [2, 5] was -13%, the BVC after treatment [2, 5] was 0.83 ± 0.07 mL and the MP after treatment [2, 5] was 91.0±6.3 mmHg. It also gave a BVC before treatment ([2]; 1 mg/kg p.o. group) of 0.52 ± 0.07 mL, an MP before treatment ([2]; 1 mg/kg p.o. group) of 96.0±8.4 mmHg and an MP % change [2, 6] of -2%. It also gave a BVC after treatment [2, 6] of 0.60 ± 0.08 mL, an MP after treatment [2, 6] of 93.7±7.2 mmHg and a BVC before treatment ([2]; 2000 µg/kg i.v. group) of 0.48 ± 0.04 mL. For the same compound, the MP before treatment ([2]; 2000 µg/kg i.v. group) was 101.8±10.9 mmHg, the BVC % change [2, 10] was “+32%” and the MP % change [2, 10] was -20%. It also gave a BVC after treatment [2, 10] of 0.63 ± 0.05 mL, an MP after treatment [2, 10] of 81.5±14.1 mmHg and a BVC before treatment ([2]; 3 mg/kg p.o. group) of 0.67 ± 0.07 mL. The MP before treatment ([2]; 3 mg/kg p.o. group) was 112.5±6.5 mmHg, the BVC % change [2, 7] was “+35%” and the MP % change [2, 7] was -4%. The BVC after treatment [2, 7] was 0.91 ± 0.10 mL, the MP after treatment [2, 7] was 107.6±9.2 mmHg and the BVC before treatment ([2]; 10 mg/kg p.o. group) was 0.54 ± 0.06 mL. The MP before treatment ([2]; 10 mg/kg p.o. group) was 90.2±7.1 mmHg, the BVC % change [2, 8] was “+37%” and the MP % change [2, 8] was -4%. For the same compound, the BVC after treatment [2, 8] was 0.73 ± 0.10 mL, the MP after treatment [2, 8] was 86.6±7.6 mmHg and the “effect on MP (in words)” value [2, 9] was “inactive”.
